Here are results for eleven molecules from paper PMC8809056 (Science (New York, N.y.), 2021).

As usually defined, the EC50 is the concentration at which the effect is half-maximal.

The structures appear in SMILES notation.

The test system of one assay is SARS-CoV-2 (nCoV/Washington/1/2020). The assay can be described thus: microbe, parasite or virus in culture.
Conditions: not given
The format is cell-based.
Take `Cc1ccc(NC(=O)c2ccc(CN3CCN(C)CC3)cc2)cc1Nc1nc(-c2cccnc2)cs1` [Masitinib]: the “Inhibition of SARS-CoV-2 infection when added after infection” value was “effective in inhibiting SARS-CoV-2 infection”.

Still in this assay, the particulars now being: A549-ACE2 cells.
As for `COC(=O)N[C@H](C(=O)N1CCC[C@H]1c1nc(-c2ccc3c(c2)O[C@@H](c2ccccc2)n2c-3cc3cc(-c4c[nH]c([C@@H]5CCCN5C(=O)[C@@H](NC(=O)OC)C(C)C)n4)ccc32)c[nH]1)C(C)C` [Elbasvir], the “Inhibition of SARS-CoV-2 infection (in words)” value (“Inhibition … (in words)” below) is listed as “did not inhibit SARS-CoV-2 infection”.

Turning to `Cc1ccc(NC(=O)c2ccc(CN3CCNCC3)cc2)cc1Nc1nc(-c2cccnc2)cs1` [AB3280], the “Inhibition … (in words)” value is “maintains its antiviral activity”.

With `C[C@@H]1[C@H](O)[C@@H](C)/C=C/C=C/C=C/C=C/C=C/C=C/C=C/[C@H](O[C@@H]2O[C@H](C)[C@@H](O)[C@H](N)[C@@H]2O)C[C@@H]2O[C@](O)(C[C@@H](O)C[C@@H](O)[C@H](O)CC[C@@H](O)C[C@@H](O)CC(=O)O[C@H]1C)C[C@H](O)[C@H]2C(=O)O` [Amphotericin B], the “Inhibition … (in words)” value is on record as “did not inhibit SARS-CoV-2 infection”.

The same assay, now with this note: Severe acute respiratory syndrome coronavirus 2, A549-ACE2; read-out: EC50 against SARS-CoV-2 infection.
Regarding `Cc1ccc(NC(=O)c2ccc(CN3CC[C@H](N(C)C)C3)c(C(F)(F)F)c2)cc1Nc1nccc(-c2cncnc2)n1` [Bafetinib], the EC50 worked out at 2200 nM.

Turning to `CN1CCCC(n2nc(Cc3ccc(Cl)cc3)c3ccccc3c2=O)CC1` (stereo not drawn) [Azelastine], the EC50 was 2400 nM.

As to `CS(=O)(=O)CCNCc1ccc(-c2ccc3ncnc(Nc4ccc(OCc5cccc(F)c5)c(Cl)c4)c3c2)o1` [Lapatinib], the concentration for a half-maximal effect (EC50) stood at 1600 nM.

As to `CCC(CC)COC(=O)[C@H](C)N[P@](=O)(OC[C@H]1O[C@@](C#N)(c2ccc3c(N)ncnn23)[C@H](O)[C@@H]1O)Oc1ccccc1` [Remdesivir], the EC50 was 720 nM.

As to `CC(CN(C)C)CN1c2ccccc2CCc2ccccc21` (stereo not drawn) [Trimipramine], the EC50 is 1500 nM.

For the molecule `OCCN1CCN(CCC=C2c3ccccc3Sc3ccc(C(F)(F)F)cc32)CC1` [Flupenthixol], the EC50 came out at 760 nM.

As for `COc1ccc2cc1Oc1ccc(cc1)C[C@H]1c3c(cc4c(c3Oc3cc5c(cc3OC)CCN(C)[C@@H]5C2)OCO4)CCN1C` [Cepharanthine], the EC50 was found to be 100 nM.

The subject of the next assay is SARS-CoV-2 wild-type, B.1.1.7, B.1.351 and P.1.
Experiment: not given
The format is cell-based.
Conditions: not given
With `Cc1ccc(NC(=O)c2ccc(CN3CCN(C)CC3)cc2)cc1Nc1nc(-c2cccnc2)cs1` [Masitinib], the Viral progeny production result was “dramatically reduced viral progeny production”.
